{"source": "patent US20080107623A1", "about": "“Inhibitors of Hepatitis C Virus” (Bristol-Myers Squibb Company, priority 2006, published 2008)", "key": {"[1]": {"tested_on": "HCV replicon in HUH-7 cells", "assay": "HCV replicon FRET assay", "format": "cell-based, HCV strain 1b", "conditions": "Hepatitis C virus", "text": "An HCV replicon whole cell system was established as described by Lohmann V, Korner F, Koch J, Herian U, Theilmann L, Bartenschlager R., Science 285(5424):110-3 (1999). This system enabled us to evaluate the effects of our HCV Protease compounds on HCV RNA replication. Briefly, using the HCV strain 1b sequence described in the Lohmann paper (Assession number: AJ238799), an HCV cDNA was synthesized by Operon Technologies, Inc. (Alameda, Calif.), and the full-length replicon was then assembled in plasmid pGem9zf(+) (Promega, Madison, Wis.) using standard molecular biology techniques. The replicon consists of (i) the HCV 5′ UTR fused to the first 12 amino acids of the capsid protein, (ii) the neomycin phosphotransferase gene (neo), (iii) the IRES from encephalomyocarditis virus (EMCV), and (iv) HCV NS3 to NS5B genes and the HCV 3′ UTR. Plasmid DNAs were linearized with ScaI and RNA transcripts were synthesized in vitro using the T7 MegaScript transcription kit (Ambion, Austin, Tex.) according to manufacturer's directions. In vitro transcripts of the cDNA were transfected into the human hepatoma cell line, HUH-7. […] Resulting cell lines were characterized for positive and negative strand RNA production and protein production over time.\nThe HCV replicon FRET assay was developed to monitor the inhibitory effects of compounds described in the disclosure on HCV viral replication. HUH-7 cells, constitutively expressing the HCV replicon, were grown in Dulbecco's Modified Eagle Media (DMEM) (Gibco-BRL) containing 10% Fetal calf serum (FCS) (Sigma) and 1 mg/ml G418 (Gibco-BRL). Cells were seeded the night before (1.5×10^4 cells/well) in 96-well tissue-culture sterile plates. Compound and no compound controls were prepared in DMEM containing 4% FCS, 1:100 Penicillin/Streptomysin (Gibco-BRL), 1:100 L-glutamine and 5% DMSO in the dilution plate (0.5% DMSO final concentration in the assay). Compound/DMSO mixes were added to the cells and incubated for 4 days at 37° C. After 4 days, cells were first assessed for cytotoxicity using alamar Blue (Trek Diagnotstic Systems) for a CC50 reading. The toxicity of compound (CC50) was determined by adding 1/10th volume of alamar Blue to the media incubating the cells. After 4 hours, the fluorescence signal from each well was read, with an excitation wavelength at 530 nm and an emission wavelength of 580 nm, using the Cytofluor Series 4000 (Perspective Biosystems). Plates were then rinsed thoroughly with Phosphate-Buffered Saline (PBS) (3 times 150 μl). The cells were lysed with 25 μl of a lysis assay reagent containing an HCV protease substrate (5× cell Luciferase cell culture lysis reagent (Promega #E153A) diluted to 1× with distilled water, NaCl added to 150 mM final, the FRET peptide substrate (as described for the enzyme assay above) diluted to 10 μM final from a 2 mM stock in 100% DMSO. […]. The plate was then placed into the Cytofluor 4000 instrument which had been set to 340 nm excitation/490 nm emission, automatic mode for 21 cycles and the plate read in a kinetic mode. EC50 determinations were carried out as described for the IC50 determinations."}, "[2]": {"tested_on": "human pancreatic chymotrypsin", "assay": "Specificity assay, chymotrypsin (pNA substrate)", "format": "biochemical", "method": "The specificities of compounds of the present disclosure were determined against a variety of serine proteases: human neutrophil elastase (HNE), porcine pancreatic elastase (PPE) and human pancreatic chymotrypsin and one cysteine protease: human liver cathepsin B. In all cases, a 96-well plate format protocol using colorimetric p-nitroaniline (pNA) substrate or fluorometric Amino-Methyl-Coumarin (AMC) substrate, specific for each enzyme was used as described previously (PCT Patent Application No. WO 00/09543) with some modifications. All enzymes were purchased from Sigma or EMDbiosciences while the substrates were from Bachem.\nEach pNA assay included a 2 h enzyme-inhibitor pre-incubation at room temperature followed by addition of substrate and hydrolysis to ˜15% conversion as measured on a Spectramax Pro microplate reader. The cathepsin B assay was initiated by adding substrate to a 10 min enzyme-inhibitor pre-incubation at room temperature, and the assay plate measured immediately using the Cytofluor Series 4000. Compound concentrations varied from 100 to 0.4 μM depending on their potency.\n50 mM Tris(hydroxymethyl)aminomethane hydrochloride (Tris-HCl) pH 8, 0.5 M Sodium Sulfate (Na2SO4), 50 mM NaCl, 0.1 mM EDTA, 3% DMSO, 0.01% Tween-20 with: […]\nThe percentage of inhibition was calculated using the formula: [1−((UVinh−UVblank)/(UVctl−UVblank))]×100 […]"}}, "note": "Where two headings read alike, the source gives them in different places.", "data": [{"smiles": "COc1c(O[C@@H]2C[C@H]3C(=O)N[C@]4(C(=O)NS(=O)(=O)C5CC5)C[C@H]4/C=C\\CCCCC[C@H](NC(=O)OC(C)(C)C)C(=O)N3C2)ccc2c(Cl)nccc12", "note": "[Compound 3]", "values": [{"measurement": "EC50", "setting": "[1]; 96 h, HUH-7 replicon cells, 4 days, read-out: EC50 in the replicon FRET assay", "value": 14.6, "unit": "nM"}, {"measurement": "EC50", "setting": "[1]; Huh-7, HCV replicon, which replicon assay not stated, read-out: EC50 Activity Range", "value": "< 100", "unit": "nM"}, {"measurement": "IC50", "setting": "[2]", "value": "> 100000", "unit": "nM"}]}]}
